Reference: patent publication US12616681B2, “Compositions and methods for treating renal injury” (priority 2019, dated 2026)

Legend:
[1] = test system: mice with ischemic AKI (bilateral renal IRI); assay: Renal IRI model: renal vasodilation and renal Doppler flux (RBF); assay type: in vivo, C57/BL6 mice
Protocol: The inner arteriolar area of the outer medulla was determined using α-smooth muscle actin (α-SMA)-stained sections. Kidneys were removed without perfusion under inhalational isoflurane anesthesia, divided into three pieces horizontally, immediately fixed in 10% formalin, and then embedded in paraffin. The inner area of α-SMA-positive vessels in the outer medulla was measured using ImageJ. The results are expressed as average areas of renal arteries in the outer medulla. As a surrogate for RBF, we used noninvasive laser Doppler flowmetry (periflux system 5000, Perimed) to measure flux, placing laser-Doppler probes at a fixed position on the kidney surface and recording renal cortical measurements. […] The relative increase represents the percent increase in RDF from baseline to peak for each test.

[2] = test system: contrast-induced acute kidney injury (CIAKI) mice; assay: CIAKI mouse model: renal function (serum creatinine, NGAL, KIM-1); assay type: in vivo, C57/BL6 mice
Protocol: Female mice were injected with 10 gI/kg of Visipaque (iodixanol) via the tail vein. […] For inhibition of the EP4s, mice were treated with 0.2 mg/kg/day of ONO-AE3-208 by subcutaneous injection for 14 days. Serum and kidney tissue were collected 48 h after the iodixanol injection.
Renal function was assessed by determining the serum levels of creatinine (Arbor Assays, Ann Arbor, MI, USA), NGAL (R&D Systems), and KIM-1 (R&D Systems) at 48 h after the iodixanol injection.

[3] = test system: PGE2 levels in kidney tissue; assay: Renal PGE2 levels in normal mice 1 h after injection (Example 2); assay type: in vivo
Protocol: Next, 20 mg kidney tissue was homogenized in […] cold PBS containing indomethacin (10 μg/mL) using a tissue homogenizer. The suspension was sonicated in an ice-water bath for 1 min using cycles of 10 s of sonication with 10 s of cooling, and then they were centrifuged for 10 min at 12,000 rpm. The supernatant was collected for PGE-2 assay. Protein concentrations were determined by bicinchoninic acid assay (Cat. #23225, Thermo Scientific). The PGE2 level in the supernatant was measured using a PGE2 enzyme-linked immunosorbent assay kit (R&D Systems, Minneapolis, MN, USA) in triplicate. PGE-2 levels were expressed as ng of PGE2/mg protein.

[4] = test system: contrast-induced acute kidney injury (CIAKI) mice; assay: CIAKI mouse model: necrotic and apoptotic cell death, gross findings; assay type: in vivo, C57/BL6 mice; conditions: 48 h after CM
Protocol: Kidneys were harvested at 48 h after the CM injection, fixed in 4% phosphate-buffered formalin, and embedded in paraffin. To evaluate necrosis, […] paraffin sections were stained with hematoxylin and eosin. Tubular injury was scored semi-quantitatively according to a system by a pathologist who examined at least 20 separate fields (400× magnification) in the outer medulla, which is the zone most sensitive to ischemic injury. The scoring system was as follows: 0, no damage; 1, patchy isolated unicellular necrosis; 2, tubular necrosis <25%; 3, tubular necrosis 25-50%; and 4, tubular necrosis >50%. At least 20 consecutive high-power fields per section were scored by two operators blind to the details of the experiment. To analyze the frequency of apoptosis, […] paraffin sections were subjected to terminal deoxynucleotidyl transferase-mediated dUTP nick-end labeling (TUNEL) assay (Millipore, Temecula, CA, USA) according to the manufacturer's protocol. Four […] paraffin sections were incubated with the TUNEL reaction mixture at 37° C. for 1 h, followed by incubation with a horseradish peroxidase-conjugated detection antibody. The signals were visualized using diaminobenzidine (Sigma-Aldrich). After counterstaining with Mayer's hematoxylin, TUNEL-positive cells were counted in at least five separate fields (640× magnification) in the outer medulla, and the apoptosis index (%, number of apoptosis cells/total number of cells) was calculated using GENASIS software.

CCCC[S+]([O-])c1sc2nc(-c3cccs3)cc(-c3ccccc3)c2c1N (stereo not drawn) [SW033291]
RDF-inferred RBF ([1]; 24 h following IRI): completely preserved | renal arteriolar area in the outer medulla ([1]; 24 h post-IRI, vs post-IRI vehicle and sham mice): significantly increased | protection from reduction of RDF-inferred RBF ([1]; single dose 1 h before IRI (Pre) vs Pre+Post): somewhat less protection | RDF-inferred RBF ([1]; within 1 h after the first injection, just before AKI): increased inferred RBF above baseline | serum creatinine, absence or presence of ONO-AE3-208 ([2]; CIAKI mice (FIG. 15E), SW033291 line = CM + SW033291, ONO-AE3-208 line = CM + ONO-AE3-208 + SW033291): 0.50 ± 0.10 mg/dL | serum NGAL, absence or presence of ONO-AE3-208 ([2]; CIAKI mice (FIG. 15F), SW033291 line = CM + SW033291, ONO-AE3-208 line = CM + ONO-AE3-208 + SW033291): 140.41 ± 25.52 ng/mL | serum KIM-1, absence or presence of ONO-AE3-208 ([2]; CIAKI mice (FIG. 15G), SW033291 line = CM + SW033291, ONO-AE3-208 line = CM + ONO-AE3-208 + SW033291): 0.09 ± 0.05 ng/mL | serum creatinine ([2]; CIAKI mice, CM + drug, 48 h after CM (FIG. 11C)): 1.10 ± 0.11 mg/dL | serum NGAL ([2]; CIAKI mice, CM + drug, 48 h after CM (FIG. 11D)): 140.41 ± 25.52 ng/mL | serum KIM-1 ([2]; CIAKI mice, CM + drug, 48 h after CM (FIG. 11E)): 0.43 ± 0.30 ng/mL | increase of renal PGE2 vs vehicle-administered normal mice ([3]; 1 h after administration, average): three times | renal PGE2 levels ([3]; normal mice, 1 h after ip 5 mg/kg): 29.71 ± 2.79 ng/mg | vascular congestion in the outer medullary region (gross findings) [4]: less-congested | proportion of TUNEL-positive cells ([4]; CM + drug): 24.01±2.90% | microscopic renal injury score ([4]; CM + drug, score 0-4): 0.53±0.16
